What was measured:
α-D-glucosidase (yeast) = molecular target: T1, α-D-glucosidase (yeast) (Saccharomyces cerevisiae, UniProt P53341); experiment: Glycosidase inhibition, Table 7; assay type: biochemical; conditions: 1 mg/mL aqueous solution added, 27 °C, run in water; for inhibition at 1000 µg/mL (stock): read-out: α-D-Glucosidase Yeast, percentage inhibition
T1 construct: purchased Sigma
Experimental: (§1) All enzymes and para-nitrophenyl substrates were purchased from Sigma. Enzymes were assayed at 27 °C in citric acid (0.1M)/disodium hydrogen phosphate (0.2 M) buffers at the optimum pH for the enzyme. The incubation mixture consisted of […] enzyme solution, […] of 1 mg/mL aqueous solution of extract, and […] of the appropriate 5 mM para-nitrophenyl substrate made up in buffer at the optimum pH for the enzyme. The reactions were stopped by the addition of […] 0.4 M glycine (pH 10.4) during the exponential phase of the reaction, which had been determined at the beginning using uninhibited assays in which water replaced the inhibitor. Final absorbances were read at 405 nm using a Versamax microplate reader (Molecular Devices). Assays were carried out in triplicate, and the values given are the means of the three replicates per assay. All reactions run in water.

β-D-glucosidase (almond) = experiment: Glycosidase inhibition, Table 7; assay type: biochemical; conditions: 1 mg/mL aqueous solution added, 27 °C, run in water
Experimental: as §1

[1] = system: β-D-glucuronidase (bovine liver); experiment: Glycosidase inhibition, Table 7; assay type: biochemical; conditions: 1 mg/mL aqueous solution added, 27 °C, run in water
Experimental: as §1

[2] = system: A2780 ovarian carcinoma cells; experiment: Cancer screening, MTT growth inhibition; assay type: cell-based; conditions: 72-h exposure; for inhibition at 25 µM / GI50: Homo sapiens; for inhibition at 25 µM: A2780, 25 µM, read-out: A2780 Ovarian Carcinoma, Percentage (%) Cell Growth Inhibition in response to 25 µM of Drug; for GI50: A2780, dose response, read-out: A2780 Ovarian Carcinoma, GI50 = Concentration (µM) that inhibits cell growth by 50%
Experimental: (§2) Two assays were run: the dose screen to ascertain cell growth inhibition in response to 25 µM of drug (on a blue background) and the dose response (GI50) (on a green background). For a discussion of BNCT as a radiotherapeutic modality, a rationalisation is provided here.
(§3) All test agents were prepared as stock solutions (20 mM) in dimethyl sulfoxide (DMSO) and stored at −20 °C. Cell lines used in the study included HT29, (colorectal carcinoma); U87, SJ-G2, (glioblastoma); MCF-7, (breast carcinoma); A2780 (ovarian carcinoma); H460 (lung carcinoma); A431 (skin carcinoma); Du145 (prostate carcinoma); BE2-C (neuroblastoma) and MiaPaCa-2 (pancreatic carcinoma); together with the one non-tumour derived normal breast cell line (MCF10A). All cell lines were incubated in a humidified atmosphere 5% CO2 at 37 °C. The cancer cell lines were maintained in Dulbecco’s modified Eagle’s medium (DMEM; Sigma, Australia) supplemented with foetal bovine serum (10%), sodium pyruvate (10 mM), penicillin (100 IUmL^−1), streptomycin (100 µg mL^−1), and L-glutamine (2 mM).
(§4) Growth inhibition was determined by plating cells in duplicate in medium (100 µL) at a density of 2500–4000 cells per well in 96-well plates. On day 0 (24 h after plating), when the cells are in logarithmic growth, medium (100 µL) with or without the test agent was added to each well. After a 72-h drug exposure, growth inhibitory effects were evaluated using the MTT (3-(4,5-dimethyltiazol-2-yl)-2,5-diphenyltetrazolium bromide) assay and absorbance read at 540 nm. The percentage growth inhibition was calculated at a fixed concentration of 25 µM, based on the difference between the optical density values on day 0 and those at the end of drug exposure. Each data point is the mean ± the standard error of the mean (SEM) calculated from three replicates, which were performed on separate occasions and separate cell line passages.

[3] = system: HT29 colon carcinoma cells; experiment: Cancer screening, MTT growth inhibition; assay type: cell-based; conditions: 72-h exposure; for inhibition at 25 µM / GI50: Homo sapiens; for inhibition at 25 µM: HT-29, 25 µM, read-out: HT29 Colon Carcinoma, Percentage (%) Cell Growth Inhibition in response to 25 µM of Drug; for GI50: HT-29, dose response, read-out: HT29 Colon Carcinoma, GI50 = Concentration (µM) that inhibits cell growth by 50%
Experimental: as §2, §3, §4

[4] = system: A431 skin carcinoma cells; experiment: Cancer screening, MTT growth inhibition; assay type: cell-based; conditions: 72-h exposure; for inhibition at 25 µM / GI50: Homo sapiens; for inhibition at 25 µM: A-431, 25 µM, read-out: A431 Skin Carcinoma, Percentage (%) Cell Growth Inhibition in response to 25 µM of Drug; for GI50: A-431, dose response, read-out: A431 Skin Carcinoma, GI50 = Concentration (µM) that inhibits cell growth by 50%
Experimental: as §2, §3, §4

[5] = system: H460 lung carcinoma cells; experiment: Cancer screening, MTT growth inhibition; assay type: cell-based; conditions: 72-h exposure; for inhibition at 25 µM / GI50: Homo sapiens; for inhibition at 25 µM: NCI-H460, 25 µM, read-out: H460 Lung Carcinoma, Percentage (%) Cell Growth Inhibition in response to 25 µM of Drug; for GI50: NCI-H460, dose response, read-out: H460 Lung Carcinoma, GI50 = Concentration (µM) that inhibits cell growth by 50%
Experimental: as §2, §3, §4

[6] = system: MIA-Pa-Ca2 pancreatic carcinoma cells; experiment: Cancer screening, MTT growth inhibition; assay type: cell-based; conditions: 72-h exposure; for inhibition at 25 µM / GI50: Homo sapiens; for inhibition at 25 µM: MIA PaCa-2, 25 µM, read-out: MIA-Pa-Ca2 Pancreatic Carcinoma, Percentage (%) Cell Growth Inhibition in response to 25 µM of Drug; for GI50: MIA PaCa-2, dose response, read-out: MIA-Pa-Ca2 Pancreatic Carcinoma, GI50 = Concentration (µM) that inhibits cell growth by 50%
Experimental: as §2, §3, §4

α-D-glucosidase (rice) = α-D-glucosidase (rice) (Oryza sativa subsp. japonica, UniProt Q653V7); experiment: Glycosidase inhibition, Table 6 (Laboratory 1); assay type: biochemical
Sequence of α-D-glucosidase (rice) (Q653V7 34-885): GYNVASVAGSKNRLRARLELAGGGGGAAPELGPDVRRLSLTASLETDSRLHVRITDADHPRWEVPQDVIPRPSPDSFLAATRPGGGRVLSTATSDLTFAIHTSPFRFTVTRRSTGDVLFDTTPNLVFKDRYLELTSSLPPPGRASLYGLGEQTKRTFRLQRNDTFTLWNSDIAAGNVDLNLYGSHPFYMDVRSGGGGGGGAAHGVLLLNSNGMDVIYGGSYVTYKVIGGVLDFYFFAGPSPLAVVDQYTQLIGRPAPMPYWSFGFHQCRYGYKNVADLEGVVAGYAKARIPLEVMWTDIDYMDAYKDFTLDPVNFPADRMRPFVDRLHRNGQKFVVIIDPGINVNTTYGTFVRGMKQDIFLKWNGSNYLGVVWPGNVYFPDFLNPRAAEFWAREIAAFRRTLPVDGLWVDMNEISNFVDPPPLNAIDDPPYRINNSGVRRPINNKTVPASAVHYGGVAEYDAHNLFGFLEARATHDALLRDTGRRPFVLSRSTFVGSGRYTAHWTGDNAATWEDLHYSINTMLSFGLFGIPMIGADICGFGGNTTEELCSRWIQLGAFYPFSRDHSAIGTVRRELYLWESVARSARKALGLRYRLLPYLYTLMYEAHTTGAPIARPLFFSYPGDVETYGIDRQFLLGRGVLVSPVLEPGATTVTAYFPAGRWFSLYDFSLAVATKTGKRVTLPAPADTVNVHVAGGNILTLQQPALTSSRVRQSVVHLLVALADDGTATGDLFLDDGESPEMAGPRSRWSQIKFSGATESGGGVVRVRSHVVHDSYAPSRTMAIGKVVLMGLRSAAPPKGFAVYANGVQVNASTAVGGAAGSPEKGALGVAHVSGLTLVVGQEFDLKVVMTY

[7] = system: MCF10A normal breast cells; experiment: Cancer screening, MTT growth inhibition; assay type: cell-based; conditions: 72-h exposure; for inhibition at 25 µM / GI50: Homo sapiens, MCF-10A; for inhibition at 25 µM: read-out: MCF10A Breast (Normal), Percentage (%) Cell Growth Inhibition in response to 25 µM of Drug; for GI50: dose response, read-out: MCF10A Breast (Normal), GI50 = Concentration (µM) that inhibits cell growth by 50%
Experimental: as §2, §3
The non-cancer MCF10A cell line was maintained in DMEM/F12 (1:1) cell culture media, 5% heat inactivated horse serum, supplemented with penicillin (50 IUmL^−1), streptomycin (50 µg mL^−1), HEPES (20 mM), L-glutamine (2 mM), epidermal growth factor (20 ng mL^−1), hydrocortisone (500 ng mL^−1), cholera toxin (100 ng mL^−1), and insulin (10 mg mL^−1).
as §4

[8] = Appearance: 1 mL of water added to 1 mg of solid, and mixed; assay type: physicochemical
U87 glioblastoma cells = experiment: Cancer screening, MTT growth inhibition; assay type: cell-based; conditions: 72-h exposure; for inhibition at 25 µM: read-out: U87 Glioblastoma, Percentage (%) Cell Growth Inhibition in response to 25 µM of Drug
Experimental: as §2, §3, §4

[9] = system: MCF-7 breast carcinoma cells; experiment: Cancer screening, MTT growth inhibition; assay type: cell-based; conditions: for inhibition at 25 µM: Homo sapiens, MCF7, 72-h exposure, read-out: MCF-7 Breast Carcinoma, Percentage (%) Cell Growth Inhibition in response to 25 µM of Drug
Experimental: as §2, §3, §4

[10] = system: Du145 prostate carcinoma cells; experiment: Cancer screening, MTT growth inhibition; assay type: cell-based; conditions: for inhibition at 25 µM: Homo sapiens, DU-145, 72-h exposure, read-out: Du145 Prostate Carcinoma, Percentage (%) Cell Growth Inhibition in response to 25 µM of Drug
Experimental: as §2, §3, §4

SJ-G2 glioblastoma cells = experiment: Cancer screening, MTT growth inhibition; assay type: cell-based; conditions: for inhibition at 25 µM: SJ-G2, 72-h exposure, read-out: SJ-G2 Glioblastoma, Percentage (%) Cell Growth Inhibition in response to 25 µM of Drug
Experimental: as §2, §3, §4

[11] = system: BE2-C neuroblastoma cells; experiment: Cancer screening, MTT growth inhibition; assay type: cell-based; conditions: 72-h exposure; for inhibition at 25 µM: Homo sapiens, BE(2)-C, read-out: BE2-C Neuroblastoma, Percentage (%) Cell Growth Inhibition in response to 25 µM of Drug
Experimental: as §2, §3, §4

T1 sequence (P53341 whole entry): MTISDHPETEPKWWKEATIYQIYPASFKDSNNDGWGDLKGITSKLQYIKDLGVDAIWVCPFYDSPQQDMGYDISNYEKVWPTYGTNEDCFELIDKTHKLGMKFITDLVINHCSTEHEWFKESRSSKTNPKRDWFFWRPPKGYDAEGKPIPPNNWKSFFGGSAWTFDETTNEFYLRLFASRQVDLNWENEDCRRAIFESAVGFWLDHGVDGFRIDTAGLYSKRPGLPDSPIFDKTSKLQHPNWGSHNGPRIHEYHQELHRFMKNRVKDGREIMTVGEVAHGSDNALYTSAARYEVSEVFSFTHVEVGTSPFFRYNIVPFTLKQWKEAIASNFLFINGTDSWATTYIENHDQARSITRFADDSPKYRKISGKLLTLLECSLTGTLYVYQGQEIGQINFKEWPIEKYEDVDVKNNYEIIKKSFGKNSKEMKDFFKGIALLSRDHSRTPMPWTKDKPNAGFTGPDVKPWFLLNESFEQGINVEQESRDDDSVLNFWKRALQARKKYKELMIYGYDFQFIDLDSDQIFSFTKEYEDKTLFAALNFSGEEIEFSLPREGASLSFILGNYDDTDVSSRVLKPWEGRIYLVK

SMILES | inhibition at 1000 µg/mL (stock) (α-D-glucosidase (yeast)) [%] | β-D-Glucosidase Almond, percentage inhibition (β-D-glucosidase (almond)) [%] | β-D-Glucuronidase Bovine Liver, percentage inhibition [1] [%] | inhibition at 25 µM [2] [%] | GI50 [2] [µM] | inhibition at 25 µM [3] [%] | GI50 [3] [µM] | inhibition at 25 µM [4] [%] | GI50 [4] [µM] | inhibition at 25 µM [5] [%] | GI50 [5] [µM] | inhibition at 25 µM [6] [%] | GI50 [6] [µM] | inhibition at 100 µM (α-D-glucosidase (rice)) [%] | inhibition at 25 µM ([7]; 25 µM) [%] | GI50 [7] [µM] | Appearance [8] | inhibition at 25 µM (U87 glioblastoma cells) [%] | inhibition at 25 µM [9] [%] | inhibition at 25 µM [10] [%] | other results
OC[C@H](O)[C@@H]1[C@H](O)[C@H](O)CN1Cc1ccccc1 [Compound 5, N-Benzyl-1,4-dideoxy-1,4-imino-L-gulitol] | 5.5 | 17.1 | −2.2 | 13 ± 6 | > 50 | 2 ± 3 | > 50 | 2 | > 50 | 0 | > 50 | 6 ± 1 | > 50 | 0 | 3 | > 50 | In solution |  |  |  | 
CC1(C)O[C@H]2O[C@H]3[C@@H]([C@H]2O1)N(Cc1ccc(B2OC(C)(C)C(C)(C)O2)cc1)C[C@H]3O [para 6, N-(4-Methylphenylboronic acid pinacol ester)-3,6-dideoxy-3,6-imino-1,2-O-isopropylidene-α-D-gulofuranose] |  |  |  | 14 |  | 8 |  | 6 |  | 10 |  | 9 |  | 0 | 14 |  | Completely insoluble | 7 | 3 | < 0 | inhibition at 25 µM (SJ-G2 glioblastoma cells): 9%; inhibition at 25 µM [11]: 5%
OB(O)c1ccc(CN2CC(O)C3OC(O)C(O)C32)cc1 [para 7, N-(4-Methylphenylboronic acid)-3,6-dideoxy-3,6-imino-D-gulofuranose] | 4.2 | 68.1 | 1.1 | 27 ± 2 | > 50 | 15 ± 3 | > 50 | 9 ± 5 | > 50 | 9 ± 6 | > 50 | 14 | > 50 |  | 4 ± 2 | > 50 | In solution |  |  |  | inhibition at 1000 µM (α-D-glucosidase (rice)): 0%
OC[C@H](O)[C@@H]1[C@H](O)[C@H](O)CN1Cc1ccc(B(O)O)cc1 [para 8, N-(4-Methylphenylboronic acid)-1,4-dideoxy-1,4-imino-L-gulitol] | 9.7 | 23.9 | 2.4 | 14 ± 7 | > 50 | 5 ± 2 | > 50 | 0 | > 50 | 1 ± 2 | > 50 | 11 ± 1 | > 50 |  | 1 | > 50 | In solution |  |  |  | inhibition at 1000 µM (α-D-glucosidase (rice)): 8.2%
N[C@@H](Cc1ccc(B(O)O)cc1)C(=O)O [^10B-BPA, reference compound] |  | 3 | −1 |  |  |  |  |  |  |  |  |  |  |  |  |  | Some in solution with undissolved sediment |  |  |  | α-D-Glucosidase Yeast, percentage inhibition (α-D-glucosidase (yeast)): 3.4%; A2780 Ovarian Carcinoma, Percentage (%) Cell Growth Inhibition in response to 25 µM of Drug ([2]; 25 µM): * 8 ± 4%; U87 Glioblastoma, Percentage (%) Cell Growth Inhibition in response to 25 µM of Drug (U87 glioblastoma cells): * <0%; HT29 Colon Carcinoma, Percentage (%) Cell Growth Inhibition in response to 25 µM of Drug ([3]; 25 µM): * 15 ± 4%; MCF-7 Breast Carcinoma, Percentage (%) Cell Growth Inhibition in response to 25 µM of Drug ([9]; 72-h exposure): * 1 ± 3%; A431 Skin Carcinoma, Percentage (%) Cell Growth Inhibition in response to 25 µM of Drug ([4]; 25 µM): * 4 ± 4%; H460 Lung Carcinoma, Percentage (%) Cell Growth Inhibition in response to 25 µM of Drug ([5]; 25 µM): * 8 ± 5%; Du145 Prostate Carcinoma, Percentage (%) Cell Growth Inhibition in response to 25 µM of Drug ([10]; 72-h exposure): * 15 ± 9%; SJ-G2 Glioblastoma, Percentage (%) Cell Growth Inhibition in response to 25 µM of Drug (SJ-G2 glioblastoma cells; 72-h exposure): * 5 ± 10%; BE2-C Neuroblastoma, Percentage (%) Cell Growth Inhibition in response to 25 µM of Drug [11]: * 10 ± 6%; MIA-Pa-Ca2 Pancreatic Carcinoma, Percentage (%) Cell Growth Inhibition in response to 25 µM of Drug ([6]; 25 µM): * 11 ± 3%; α-D-Glucosidase Rice, inhibition % at 100 μM (α-D-glucosidase (rice); 100 μM): ^c NI ^d (0%); MCF10A Breast (Normal), Percentage (%) Cell Growth Inhibition in response to 25 µM of Drug ([7]; 25 µM): * <0%
N[C@@H](Cc1ccc(B(O)O)cc1)C(=O)O [BPA, 4-borono-L-phenylalanine, reference compound] | 2.9 | 3.9 | −0.7 | 4 |  | 14 |  | 4 |  | 7 |  | 3 |  |  | 4 |  | Some in solution with undissolved sediment | < 0 | < 0 | 19 | inhibition at 25 µM (SJ-G2 glioblastoma cells): 5%; inhibition at 25 µM [11]: 13%

— PMC12472391, “Borylated Five-Membered Ring Iminosugars: Synthesis, Spectroscopic Analysis, and Biological Evaluation for Glycosidase Inhibition and Anticancer Properties for Application in Boron Neutron Capture Therapy (BNCT)—Part 1” (Pharmaceuticals, 2025)
